# Patent publication US10494453B2, “Conjugate compound and uses of same” (THE UNIVERSITY OF QUEENSLAND, priority 2013, dated 2019)
# Read-outs that look alike come from different tables or passages of the source.
# Legend:
# [1] = system: MPCs; settings: cited from earlier work; for Promotion of chondrogenesis of MPCs: absent growth factors or other chondroinductive supplements
# [2] = system: MPCs; assay: qPCR gene expression of MPC pellets (chondrogenic differentiation); type: cell-based, human; settings: for Expression of BMP13: over untreated controls
# Method: (§1) Stro1-selected human MPCs were prepared by Lonza (Walkersville, USA) for Mesoblast Ltd (Melbourne, Australia) according to the isolation procedure described by Gronthos et al. MPCs were cultured in alphaMEM supplemented with 100 U/ml penicillin, 100 μg/ml streptomycin (Gibco/Invitrogen Carlsbad, Calif., USA), 10% batch tested foetal bovine serum (FBS), 2 mM L-Glutamine, 1 mM Sodium Pyruvate, and 100 μM L-ascorbate-2-Phosphate. Tissue culture flasks were maintained at 37° C. in 5% CO2 in an atmosphere with 95% humidity. Upon reaching 70% confluence MPCs were passaged, replating at 2000 cells/cm2.
# (§2) Chondrogenic differentiation was compared for MPCs cultured in maintenance medium and treated with PPS, HA, HA-PPS and HA-PPSCOOH at concentrations equivalent to 5, 10 and 20 μg/ml unbound PPS. These factors were added to the cells prior to pellet formation, which was initiated by centrifuging 2×105 MPCs in a non-adherent U-bottom plate at 500 g for 10 min. MPC pellets were cultured in […] medium with media changes every 3-4 days. After 21 days, samples were taken for analysis by histological staining, DMMB assay and qPCR.
# Total RNA was extracted using an RNeasy Minikit with on-column DNase treatment (Qiagen) according to the manufacturer's instructions, cDNA was synthesized from 250 ng RNA, or the equivalent volume of DNase and RNasefree water for no-RT controls, using the SuperScript® III First-Strand Synthesis System (Invitrogen). qPCR reactions were set-up in a total volume of 10 μl with 1× Platinum SYBR Green qPCR SuperMix-UDG (Invitrogen) and 0.2 μM forward and reverse primers. A 7500 Fast Real-Time PCR System (Applied Biosystems) with fast cycling parameters of 2 min at 50° C., 2 min at 95° C. then 40 cycles of 3 sec at 95° C. and 30 sec at 60° C. followed by a melt curve was used to run the samples. Data was analysed using the 2-^ΔΔct method and normalized back to untreated monolayer levels.
# [3] = system: MPCs; assay: CCK8 assay of MPC proliferation; type: cell-based, human; settings: 7 days; concentrations equivalent to 5, 10 and 20 μg/ml unbound PPS
# Method: as §1
# MPCs were seeded at a density of 2000 cells/cm2 in a 96-well plate and allowed to adhere for 4 hrs at which point the medium was exchanged for MPC maintenance medium supplemented with PPS, HA, HA-PPS and HA-PPSCOOH at concentrations equivalent to 5, 10 and 20 μg/ml unbound PPS. MPCs were cultured for 7 days with media changes every 2-3 days and the cell number determined by CCK8 assay (Sigma). Briefly, the culture medium was replaced with 100 μl MPC maintenance medium (without phenol red) containing 10% (v/v) CCX8. After 2 hrs the absorbance was read at 450 nm. All samples were performed in triplicate and normalised to blank medium without cells.
# [4] = system: MPCs; assay: DMMB assay for GAG content of chondrogenic MPC pellets; type: cell-based, human
# Method: as §2
# Chondrogenic pellets were collected, rinsed in PBS and lysed in 1 mg/ml Papain in 100 mM sodium phosphate, 5 mM EDTA and 5 mM L-cystein (pH 6.5) overnight at 60° C. Samples of 40 μl were plated in triplicate with the addition of 10 μl 1% BSA in PBS and 50 μl 2×1,9-dimethylmethylene blue (DMMB). These were incubated at room temperature for 15 min and the absorbance at 525 nm read using a Spectramax M5 Fluorometer (Molecular Devices). Samples were normalized to DNA content as assessed by PicoGreen assay (Molecular Probes: performed according to the manufacturer's instructions).
# [5] = system: MPCs; assay: Live/dead staining of MPCs encapsulated in HA/PEG hydrogels; type: cell-based, human; settings: HA/PEG hydrogels containing the substance; 24 hrs and 7 days
# Method: (§3) MPCs (P4-6) were encapsulated in gels containing 15 mg/ml HATYR, 16.5 mg/ml PEGHPA. 0.25 U/ml horseradish peroxidase (HRP) and varying amounts of hydrogen peroxide (H2O2). Soluble PPS was added into the gels prior to crosslinking at a final concentration of 5 μg/ml. HA-PPS and HA-PPSCOOH were incorporated at concentrations of 16 μg/ml and 9 μg/ml respectively giving a concentration of PPS equivalent to 5 μg/ml unbound PPS.
# (§4) MPCs were resuspended to a concentration of 5×10^6 cells/ml in solution containing all of the components except H2O2 and thoroughly mixed. Crosslinking was then initiated by the addition of H2O2 and the gels spotted out into lowbinding tissue culture plates. After 15 minutes, growth media was added to the well and the cell/gel composites cultured for up to 21 days with media changes every 3-4 days.
# [6] = system: MPCs; assay: Collagen-II immunofluorescence of MPC/hydrogel composites; type: cell-based, human; settings: compared to gels alone
# Method: as §3, §4
# Samples were fixed in 4% paraformaldehyde for 20 min and rinsed with PBS. To detect Collagen-II, the samples were digested with 0.01% pepsin (w/v) in 0.01M HCL (pH2) for 30 min at 37° C. and incubated in 0.1% Triton-X-100 for […] at RT° C. before blocking in 2% BSA/2% goat serum for 1 hr. A Collagen-II antibody (Abram ab3092) was used at a dilution of 1/50 for 2 hrs followed by incubation with an AlexFluor 488-conjugated secondary antibody for 1 hr. […]
# [7] = Rheological characterisation of PEG/HA hydrogels; type: physicochemical; settings: incorporated into PEG/HA hydrogel
# Method: All rheological measurements were obtained using an AR G2 rheometer (TA Instruments, New Castle, Del.) in oscillatory mode using a 20 mm diameter stainless steel flat plate and lower Teflon Pelletier surface. The gels were synthesized and, upon addition of the H2O2, immediately vortexed and loaded between the plates of the rheometer with a gap measurement of 1000 μm. Gelation kinetics and final moduli were determined by timesweeps at 37° C., conducted with a controlled strain of 1% and an angular frequency of 6.28 rad/sec. Frequency sweeps were performed between 5.000E-3 to 50 rad/sec at 1% strain. Stress sweeps confirmed that this was within the linear viscoelastic region.
# [8] = Swelling of hydrogels; type: physicochemical; settings: incorporated into the hydrogels; p<0.05
# Method: To determine the degree of swelling, 50 μl gels were synthesized and the dry weight obtained after freeze-drying for 24 hrs (Wd). The gels were then incubated in 500 μl PBS for 24 hrs at […]. The PBS was removed and the gels reweighed (Ws). The degree of swelling was determined by ((Ws-Wd)/Wd) using triplicate gels for each condition. Degradation of 50 μl gels was measured over a period of 3 months using triplicate samples for each condition. After synthesis, the gels were incubated in PBS/0.01% Sodium azide at 37° C. with weekly changes of buffer. At specific tirnepoints all excess PBS was removed and the gels weighed. The degree of degradation was expressed as a % of the original gel mass.
# [9] = absence of differentiation factors
substance,measurement,setting,value
dextran sulphate,Promotion of chondrogenesis of MPCs,[1],did not show any success
heparin,Promotion of chondrogenesis of MPCs,[1],did not show any success
hyaluronic acid [HA],Expression of BMP13,[2]; [9],no effect
same,MPC proliferation (CCK8 assay),[3],did not have this effect
same,GAG production by MPCs,[4]; exposure of MPCs to substance alone,did not produce any increase in GAG production
same,Proteoglycan (PG) synthesis by MPCs,[1]; higher concentrations,inhibited PG synthesis
same,Proteoglycan (PG) synthesis by MPCs,[1]; low concentrations,showed some stimulation
pentosan polysulfate [PPS],Expression of osteogenic transcription factor Runx2,"[2]; absence of any differentiation factors, vs untreated controls",small but significant decrease
same,Expression of the BMP antagonist Noggin,[2]; [9],decreased
same,Expression of BMP13,[2]; [9],significantly increased
same,Viability of encapsulated MPCs,[5],retained good viability
same,GAG content (DMMB assay),"[4]; % of untreated pellets, after 21 days, no additional chondrogenic factors",150%
same,Deposition of collagen-II around encapsulated MPCs,[6],increased
same,Promotion of chondrogenesis of MPCs,[1],induced the in vitro proliferation and chondrogenic differentiation of MPCs
same,Gelation process of hydrogel,[7],slows the gelation process
same,Resulting modulus of hydrogel,[7],small decrease in resulting modulus
same,Change in swelling of hydrogel,[8],decreased
